From the supplement of paper PMC10307832

Tests used:
Assay in all cases: relative viability (nuclei count vs DMSO), 5 days (fraction); higher = more cells survive
[1] = compound: CC1=NN=C(O1)C2=NN=C(C=C2)N3CCC(CC3)OC4=C(C=CC(=C4)F)Cl + CC(=O)c1c(C)c2cnc(Nc3ccc(N4CCNCC4)cn3)nc2n(C2CCCC2)c1=O [Palbociclib] (partner 0.5 µM)
How it was run: (§1)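 Lung cancer cell lines in 1536-well plates were dosed by pin tool the day after seeding, either with one drug alone or with a fixed anchor-drug dose plus five library-drug doses (not always all listed) in √10 steps. After 5 days, cells were fixed and their nuclei stained in one step (final 0.05% Triton X-100, 1% formaldehyde, 1 ug/ml Hoechst), then counted on 4× images. Relative viability is the nuclei count in treated wells divided by that in vehicle wells. Values are medians of duplicate plates.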

[2] = compound: CC1=NN=C(O1)C2=NN=C(C=C2)N3CCC(CC3)OC4=C(C=CC(=C4)F)Cl + NC(=O)Nc1cc(-c2cccc(F)c2)sc1C(=O)N[C@H]1CCCNC1 [AZD7762] (partner 0.2 µM)
How it was run: as §1

Tosedostat + Alpelisib = compound: CC(C)C[C@@H](C(=O)N[C@H](C(=O)OC1CCCC1)c1ccccc1)[C@H](O)C(=O)NO [Tosedostat] + Cc1nc(NC(=O)N2CCC[C@H]2C(N)=O)sc1-c1ccnc(C(C)(C)C(F)(F)F)c1 [Alpelisib] (partner 2 µM)
How it was run: as §1

[3] = compound: CC1=NN=C(O1)C2=NN=C(C=C2)N3CCC(CC3)OC4=C(C=CC(=C4)F)Cl + CC(C)C[C@H](NC(=O)[C@H](Cc1ccccc1)NC(=O)c1cnccn1)B(O)O [Bortezomib] (partner 0.002 µM)
How it was run: as §1

| Cell Line | relative viability ([1]; first compound 0.253 µM) | relative viability ([1]; first compound 0.8 µM) | relative viability ([1]; first compound 2.53 µM) | relative viability ([1]; first compound 8 µM) | relative viability ([2]; first compound 0.253 µM) | relative viability ([2]; first compound 0.8 µM) | relative viability ([2]; first compound 2.53 µM) | relative viability ([2]; first compound 8 µM) | relative viability (Tosedostat + Alpelisib; first compound 0.02 µM) | relative viability (Tosedostat + Alpelisib; first compound 0.06325 µM) | relative viability (Tosedostat + Alpelisib; first compound 0.2 µM) | relative viability (Tosedostat + Alpelisib; first compound 0.6325 µM) | relative viability (Tosedostat + Alpelisib; first compound 2 µM) | relative viability ([3]; first compound 0.253 µM) | relative viability ([3]; first compound 0.8 µM) | relative viability ([3]; first compound 2.53 µM) | relative viability ([3]; first compound 8 µM) |
| --- | --- | --- | --- | --- | --- | --- | --- | --- | --- | --- | --- | --- | --- | --- | --- | --- | --- |
| NCI-H522 | 1.1 | 1.01 | 0.65 | 1.05 | 0.9 | 0.879 | 0.857 | 0.715 | – | – | – | – | – | – | – | – | – |
| HCC-15 | 0.427 | 0.392 | 0.414 | 0.418 | 0.733 | 0.571 | 0.639 | 0.608 | 0.848 | 0.934 | 0.863 | 0.808 | 0.651 | 0.485 | 0.407 | 0.415 | 0.395 |
| A-427 | 0.567 | 0.566 | 0.584 | 0.564 | 0.726 | 0.526 | 0.824 | 0.724 | 1.1 | 1.09 | 1.12 | 1.12 | 0.983 | 0.867 | – | 0.864 | 0.802 |
| NCI-H3122 | 0.191 | 0.201 | 0.183 | 0.221 | 0.444 | 0.469 | 0.503 | 0.485 | 0.861 | 0.809 | 0.844 | 0.774 | 0.997 | 0.662 | 0.707 | 0.71 | 0.566 |
| NCI-H1915 | 0.385 | 0.291 | 0.319 | 0.266 | 0.501 | 0.276 | 0.464 | 0.381 | 1.1 | 1.05 | 1.04 | 1.07 | 0.907 | 0.4 | 0.31 | 0.456 | 0.323 |
| NCI-H1355 | 0.25 | 0.359 | 0.353 | 0.353 | 0.571 | 0.385 | 0.773 | 0.692 | 0.704 | 0.798 | 0.854 | 0.667 | 0.688 | – | – | 1.1 | 0.945 |
| NCI-H2023 | 0.28 | 0.277 | 0.233 | 0.199 | – | – | – | – | 0.571 | 0.558 | 0.675 | 0.421 | 0.483 | 0.49 | 0.415 | 0.505 | 0.386 |
| NCI-H1755 | 0.334 | 0.451 | 0.464 | 0.4 | 0.442 | 0.428 | 0.465 | 0.418 | 0.941 | 0.9 | 0.922 | 0.864 | 0.883 | 0.493 | 0.625 | 0.73 | 0.628 |
| HCC-366 | 0.063 | 0.124 | 0.132 | 0.112 | 0.118 | 0.144 | 0.225 | 0.173 | 0.331 | 0.357 | 0.376 | 0.382 | 0.342 | 0.394 | 0.438 | 0.436 | 0.395 |
| SK-MES-1 | 0.28 | 0.355 | 0.341 | 0.352 | – | – | – | – | 0.814 | 1 | 0.832 | 0.802 | 0.689 | – | – | – | – |
| NCI-H596 | – | – | – | – | 0.975 | 0.853 | 0.97 | 0.946 | 0.48 | 0.51 | 0.483 | 0.619 | 0.552 | – | 0.85 | 1.01 | 0.713 |
| RERF-LC-KJ | 0.617 | 0.667 | 0.633 | 0.688 | 0.53 | 0.569 | 0.564 | 0.554 | 0.677 | 0.955 | 0.777 | 0.742 | 0.57 | 0.776 | 0.9 | 0.929 | 0.969 |
| LOU-NH91 | – | 0.535 | 0.478 | 0.632 | – | 0.715 | 0.816 | 0.717 | 0.695 | 0.704 | 0.741 | 0.706 | 0.674 | – | 0.517 | 0.479 | 0.436 |
| Calu-6 | – | – | – | – | – | – | – | – | 1.18 | 0.883 | 0.91 | 0.689 | 0.597 | 0.764 | 0.807 | 0.832 | 0.804 |
| LC-2-ad | 0.215 | 0.216 | 0.239 | 0.202 | 0.394 | 0.391 | 0.398 | 0.379 | 0.932 | 0.885 | 0.852 | 0.889 | 0.74 | 0.323 | 0.259 | 0.328 | 0.274 |
| CAL-12T | 0.441 | 0.485 | 0.43 | 0.336 | 0.637 | 0.586 | 0.606 | 0.479 | 1.28 | 1.14 | 1.3 | 0.988 | 0.872 | 1.01 | 0.867 | 0.86 | 0.696 |
| NCI-H1650 | 0.253 | 0.334 | 0.3 | 0.292 | – | – | – | – | – | – | – | – | – | – | 0.202 | 0.17 | 0.197 |
| NCI-H1703 | – | – | – | – | 0.097 | 0.129 | 0.153 | 0.0983 | 0.265 | 0.274 | 0.302 | 0.329 | 0.31 | 0.304 | 0.278 | 0.222 | 0.218 |
| BEN | 0.452 | 0.448 | 0.487 | 0.52 | 0.681 | 0.752 | 0.878 | 0.729 | 1.09 | 1.01 | 1.15 | 1.28 | 1.26 | 0.726 | 0.771 | 0.932 | 0.719 |
| EMC-BAC-2 | 0.492 | 0.513 | 0.502 | 0.513 | 1.07 | 0.929 | 1.1 | 1.03 | 0.722 | 0.725 | 0.73 | 0.737 | 0.682 | 1.02 | 0.964 | 1.02 | 0.95 |
| LXF-289 | 0.524 | 0.549 | 0.531 | 0.458 | 0.898 | 0.757 | 1.12 | 0.967 | 1.03 | 1.05 | 1.03 | 1.07 | 1.1 | 0.682 | 0.674 | 0.753 | 0.619 |
| ABC-1 | 0.411 | 0.271 | 0.287 | 0.28 | 0.852 | 0.712 | 0.597 | 0.45 | 1.05 | 0.864 | 1.08 | 0.843 | 0.771 | 0.26 | 0.314 | 0.237 | 0.267 |
